From patent publication US20210093531A1, “DERIVATIVES OF MENTHOL AND USES THEREOF” (Board of Trustees of Northern Illinois University, priority 2019, published 2021)
Marks after values point to notes of the source that are not given here.

Columns and labels:
[1] = estimated, relative to menthol; cited from earlier work
trained panelists [2] = test: time-intensity analysis of cooling, lozenge application; format: in vivo; details: 4-minute window
Protocol: In order to evaluate the potential use of menthol glycinates as […] different food, beverage and oral hygiene products, select compounds were incorporated in different application systems. A beverage model system, a lozenge and a mouthwash application were created, and time-intensity analysis was performed using trained discrimination analysis panelists. Time-Intensity (TI) is a temporal sensory method. During TI evaluations, assessors are asked to score the intensity of perception of a single attribute over consumption of the product. Compared to single point measurements, TI analysis can characterize the onset, decline and rates thereof, of particular sensory characteristics. This analysis may reveal rich information regarding the intensity of an attribute over the time domain and identify temporal perceptual differences among samples that can greatly impact the overall profile of a product. For each sample evaluation, a temporal curve is generated, based on duplication. The temporal curves for each panelist are combined to generate a combined curve for each product that is evaluated. The following distinct parameters were calculated: Imax: peak intensity or maximum observed intensity on the whole curve; […]: time point where the reaction to the stimulus is first perceived on the curve; Tmax: time position of the peak intensity on the curve; Tplateau: protraction of maximum intensity or duration of maximum intensity; Text: time point of extinction of the perception of the stimulus, defined as the position in time after the peak intensity where the measured intensity disappears (or the end of evaluation window); Iext: intensity at time of extinction or end of evaluation; R increase: slope or rate of intensity increase between […] and Tmax; R decrease: slope or rate of intensity decrease between Tmax and Text; and Area: the total area under the time-intensity curve. The formula detailed in Table 4 was employed to create the lozenge application to evaluate menthol glycinates of interest using time-intensity analysis. [table] For time-intensity (T-I) evaluation of the cooling intensity of lozenges, 9 panelists were recruited (3 male, 6 female). Panelists were trained in basic taste descriptive analysis. A sweetness reference series (intensity range 2-12) was provided to be used as cross-modality reference to aid in scaling the intensity of the cool attribute present in the lozenge samples. Panelists evaluated samples in duplicates and all samples were presented blinded and in a randomized order using a 3-digit code. Panelists were instructed to provide cooling intensity at predetermined time points throughout an evaluation window of 4 minutes. […] Evaluations were performed with at least 4 hours between them to ensure no carry over. Data analysis for generation of T-I statistics and ANOVA analysis to determine significant difference among samples was performed using R STUDIO.

trained panelists [3] = test: time-intensity analysis of cooling, mouthwash application; format: in vivo; details: for Iext (cooling intensity at end of evaluation): 15 minutes after expectoration
Protocol: In order to evaluate the potential use of menthol glycinates as […] different food, beverage and oral hygiene products, select compounds were incorporated in different application systems. A beverage model system, a lozenge and a mouthwash application were created, and time-intensity analysis was performed using trained discrimination analysis panelists. Time-Intensity (TI) is a temporal sensory method. During TI evaluations, assessors are asked to score the intensity of perception of a single attribute over consumption of the product. Compared to single point measurements, TI analysis can characterize the onset, decline and rates thereof, of particular sensory characteristics. This analysis may reveal rich information regarding the intensity of an attribute over the time domain and identify temporal perceptual differences among samples that can greatly impact the overall profile of a product. For each sample evaluation, a temporal curve is generated, based on duplication. The temporal curves for each panelist are combined to generate a combined curve for each product that is evaluated. The following distinct parameters were calculated: Imax: peak intensity or maximum observed intensity on the whole curve; […]: time point where the reaction to the stimulus is first perceived on the curve; Tmax: time position of the peak intensity on the curve; Tplateau: protraction of maximum intensity or duration of maximum intensity; Text: time point of extinction of the perception of the stimulus, defined as the position in time after the peak intensity where the measured intensity disappears (or the end of evaluation window); Iext: intensity at time of extinction or end of evaluation; R increase: slope or rate of intensity increase between […] and Tmax; R decrease: slope or rate of intensity decrease between Tmax and Text; and Area: the total area under the time-intensity curve. The formula shown in Table 8 was employed to create a mouthwash product to evaluate […] of interest using time-Intensity analysis. [table] The following test compounds were evaluated: menthol, XI-I-60, RK-2-10, XI-I-65, DK-1-50, and XI-2-73. For time-intensity (T-I) evaluation of the cooling attributes of mouthwash products, 8 panelists were recruited (2 male, 6 female). Panelists were trained in basic taste descriptive analysis. A sweetness reference series (intensity range 2-12) was provided to be used as cross-modality reference to aid in scaling the intensity of the cooling attribute present in the mouthwash samples. Panelists evaluated samples in duplicates and all sample were presented blinded and in a randomized order using a 3-digit code. Panelist evaluated 15 ml of mouthwash at a time and were instructed to rinse for 30 seconds and expectorate. Panelists were instructed to provide cooling intensities before and after expectoration. For the time before expectoration, evaluation started upon introducing the sample and every 10 seconds thereafter. After expectoration, the evaluation continued for 15 minutes and panelists provided cooling intensity ratings at predetermined times. Due to the unique nature of this product and the interest in prolonging the cooling attribute long after consumption, an additional parameter led was evaluated among samples via ANOVA. This parameter is the cooling intensity at time of extinction or in our case the end of evaluation. Data analysis for generation of T-I statistics and ANOVA analysis to determine significant difference among samples was performed using R STUDIO.

[4] = after expectoration for 15 minutes (Table 9b)
[5] = rinse phase 30 seconds (Table 9a)

**Q.** With `CC(C)[C@@H]1CC[C@@H](C)C[C@H]1C(=O)NCCc1ccccn1` [amide 19] as the compound, how does the “times cooler than menthol (cooling potential)” value [1] read?
**A.** Its value is “about 100 times”.

**Q.** For “(1R,2S,5R)-2-isopropyl-5-methylcyclohexyl 2-(cyclopropylamino)acetate [Product 12]”, which “AUC (total area under time-intensity curve)” value (trained panelists [2]) is on record?
**A.** Its value is 1945.31^bc.

**Q.** And the “RDec (rate of intensity decrease)” value (trained panelists [2])?
**A.** The value was 0.042^ab.

**Q.** And the “RInc (rate of intensity increase)” value (trained panelists [2])?
**A.** The value was 0.042^ab.

**Q.** What about the “Tmax (time of peak intensity)” value (trained panelists [2]) of the same compound?
**A.** Its value is 206.25^a.

**Q.** What does the source list for `CC(C)[C@@H]1CC[C@@H](C)C[C@H]1OC(=O)CNC1CC1` [Product 12, (1R,2S,5R)-2-isopropyl-5-methylcyclohexyl 2-(cyclopropylamino)acetate]?
**A.** Iext (cooling intensity at end of evaluation) (trained panelists [3]; listed as XI-1-66): significantly higher cooling intensity; Iext (cooling intensity at end of evaluation) (trained panelists [3]; listed as XI-I-65): 2.18^b; AUC (trained panelists [3]; [4]): 5211.25^bc; I max (trained panelists [3]; [4]): 13.20^ab; Rdec (trained panelists [3]; [4]): −0.01^b; Tmax (trained panelists [3]; [4]): 32.50^a; Tstart (trained panelists [3]; [4]): 30.00^a; Rinc (trained panelists [3]; after expectoration for 15 minutes (Table 9b), listed as XI-I-65): 0.03^b; Rinc (trained panelists [3]; after expectoration for 15 minutes (Table 9b), listed as XI-I-66): positive and significantly higher compared to that of menthol; AUC (trained panelists [3]; [5]): 186.88^a; Rinc (trained panelists [3]; [5]): 0.23^a; Tstart (trained panelists [3]; [5]): 10.00^a; Rdec (trained panelists [3]; rinse phase 30 seconds (Table 9a), listed as XI-165): significantly lower R decrease; Rdec (trained panelists [3]; rinse phase 30 seconds (Table 9a), listed as XI-I-65): 0.00^b; AUC (total area under time-intensity curve) (trained panelists [2]): not significantly different than menthol

**Q.** For “(1R,2S,5R)-2-Isopropyl-5-methylcyclohexyl 2-(benzyl(methyl)amino)acetate [Product 15]”, which “Iext (cooling intensity at end of evaluation)” value (trained panelists [3]) is on record?
**A.** Its value is 0.67^a.

**Q.** And the AUC (trained panelists [3]; [4])?
**A.** Its AUC is 4082.50^ac.

**Q.** And the I max (trained panelists [3]; [4])?
**A.** Its I max is 13.50^ab.

**Q.** And the Rdec (trained panelists [3]; [4])?
**A.** Its Rdec is −0.01^b.

**Q.** And the Tmax (trained panelists [3]; [4])?
**A.** The Tmax was 32.50^a.

**Q.** What about the Tstart (trained panelists [3]; [4]) of the same compound?
**A.** The Tstart was 30.00^a.

**Q.** And the AUC (trained panelists [3]; [5])?
**A.** The AUC was 179.79^a.

**Q.** What about the Rinc (trained panelists [3]; [5]) of the same compound?
**A.** The Rinc was 0.21^a.

**Q.** And the Tstart (trained panelists [3]; [5])?
**A.** The Tstart was 10.00^a.

**Q.** Which “Iext (cooling intensity at end of evaluation)” value (trained panelists [3]) does the source give for `CC(C)NCC(=O)O[C@@H]1C[C@H](C)CC[C@H]1C(C)C` [Product 7, (1R,2S,5R)-2-Isopropyl-5-methylcyclohexyl 2-(isopropylamino)acetate] here?
**A.** Its value is “significantly higher cooling intensity”.

**Q.** And the AUC (trained panelists [3]; [4])?
**A.** Its AUC is “significantly higher”.

**Q.** And the Imax (trained panelists [3]; [5])?
**A.** The Imax was “trending higher”.

**Q.** What about the Rdec (trained panelists [3]; [5]) of the same compound?
**A.** The Rdec was “significantly lower R decrease”.

**Q.** What about the “Tstart (time cooling first perceived)” value (trained panelists [2]) of the same compound?
**A.** The value was “significantly delayed cooling onset”.

**Q.** With `Cc1cc2ccccc2n1CCNC(=O)[C@@H]1C[C@H](C)CC[C@H]1C(C)C` [compound 1] as the compound, how does the “times cooler than menthol (cooling potential)” value [1] read?
**A.** The value was about 1000 times.
